{"source": "patent US20260345619A1", "about": "(Principia Biopharma Inc., priority 2023, published 2026)", "origin": "cited, not measured here", "key": {"[1]": {"test_system": "251 kinases sharing a common cysteine in their active site", "details": "cited from earlier work"}, "BTK": {"test_system": "BTK", "details": "preclinical assays; cited from earlier work"}}}
{"smiles": "CC(C)(C=C(C#N)C(=O)N1CCC[C@@H](n2nc(-c3ccc(Oc4ccccc4)cc3F)c3c(N)ncnc32)C1)N1CCN(C2COC2)CC1", "note": "(mixture of isomers) [rilzabrutinib, (R)-2-[3-[4-amino-3-(2-fluoro-4-phenoxy-phenyl)pyrazolo[3,4-d]pyrimidin-1-yl]piperidine-1-carbonyl]-4-methyl-4-[4-(oxetan-3-yl)piperazin-1-yl]pent-2-enenitrile]", "values": [{"measurement": "number of kinases inhibited (>90% inhibition)", "setting": "[1]; 1 μM, panel of 251 kinases", "value": 6, "unit": "kinases"}, {"measurement": "cross-reactivity with other molecules", "setting": "[1]; in comparison to first and second generation BTKi", "value": "minimal cross-reactivity"}, {"measurement": "binding to BTK over time", "setting": "BTK", "value": "persisted"}]}
